In patent publication US6361788B1, “Synergistic biocide composition” (Thor Chemie GmbH, priority 1997, dated 2002):
Where two headings read alike, the source gives them in different places.

Assays:
Assay type in all cases: cell-based
Escherichia coli = test: MIC and synergy of MIT/BIT (1:1) and HCHO in Müller-Hinton broth, 48 h
Method: (§1) The synergy index is calculated according to the method of F. C. Kull et al., Applied Microbiology, Vol. 9 (1961), p. 538. Here the synergy index is calculated using the following formula:
(§2) Synergy index SI=Qa/QA+Qb/QB.
The test batches contained a Müller-Hinton broth as a nutrient medium. The cell density was 10^6 cells/mL. The incubation time was 48 b at 25° C. Each sample was incubated on an incubation shaker at 120 rpm.

Pseudomonas aeruginosa [1] = test: as above
Method: as §1, §2
The test batches contained a Müller-Hinton broth as a nutrient medium. The cell density was 10^6 cells/mL. The incubation time was 48 h at 25° C. Each sample was incubated on an incubation shaker at 120 rpm.

Aspergillus niger = test: MIC and synergy of MIT/BIT (1:1) and OIT in Sabouraud maltose broth, 72 h
Method: (§3) In all the examples in which an active substance mixture of MIT and BIT as well as additionally a further active biocidal substance was used, the weight ratio of MIT to BIT was 1:1.
as §1, §2
The synergy of an active substance mixture that contains 2-n-octylisothiazolin-3-one (OIT) in addition to MIT and BIT, against the microorganism Aspergillus niger is shown as in Example 1.
(§4) The test batches contained a Sabouraud maltose broth as a nutrient medium. The spore concentration was 10^6 per mL. The incubation time was 72 h at 25° C. Each sample was incubated on an incubation shaker at 120 rpm.

Penicillium funiculosum = test: as above; settings: for growth of the microorganism: MIT/BIT ppm = row head c0; as to growth of the microorganism: key: growth of the microorganism took place (symbol '+'); or not (symbol '−')
Method: as §3, §1, §2
The synergy of an active substance mixture that contains OIT in addition to MIT and BIT, against the microorganism Penicillium funiculosum is shown as in Example 1.
as §4

Saccharomyces cerevisiae = test: as above
Method: as §3, §1, §2
The synergy of an active substance mixture that contains OIT in addition to MIT and BIT, against the microorganism Saccharomyces cerevisiae is shown as in Example 1.
The test batches contained a Sabouraud maltose broth as a nutrient medium. The cell density was 10^6 cells/mL. The incubation time was 72 h at 25° C. Each sample was incubated on an incubation shaker at 120 rpm.

Pseudomonas aeruginosa [2] = test: MIC and synergy of MIT/BIT (1:1) and OIT in Müller-Hinton broth, 144 h
Method: as §3, §1, §2
The synergy of an active substance mixture that contains OIT in addition to MIT and BIT, against the microorganism Pseudomonas aeruginosa is shown as in Example 1.
The test batches contained a Müller-Hinton broth as a nutrient medium. The cell density was 10^6 cells/mL. The incubation time was 144 h at 25° C. Each sample was incubated on an incubation shaker at 120 rpm.

C=O [HCHO, formaldehyde] was tested. Which Qb/QB (Escherichia coli; 48 h) did it give?
Its Qb/QB is 1.00.

And the “Synergy index Qa/QA + Qb/QB” value (Escherichia coli; 48 h)?
Its value is 1.00.

What about the MIC (Escherichia coli; 48 h, read-out: MIC at HCHO concentration Qb) of the same molecule?
The MIC was 300 µg/mL.

And the “Total concentration MIT/BIT + HCHO” value (Escherichia coli; at the MIC, 48 h)?
The value was 300 ppm.

What about the MIC (Escherichia coli; read-out: MIC value) of the same molecule?
Its MIC is 300 µg/mL.

What about the Qb/QB (Pseudomonas aeruginosa [1]) of the same molecule?
Its Qb/QB is 1.00.

What about the “Synergy index Qa/QA + Qb/QB” value (Pseudomonas aeruginosa [1]) of the same molecule?
Its value is 1.00.

And the “Total concentration MIT/BIT + HCHO” value (Pseudomonas aeruginosa [1]; at the MIC)?
The value was 300 ppm.

What about the MIC (Pseudomonas aeruginosa [1]; read-out: MIC at HCHO concentration Qb) of the same molecule?
The MIC was 300 µg/mL.

And the MIC (Pseudomonas aeruginosa [1]; read-out: MIC value)?
Its MIC is 300 µg/mL.

With CCCCCCCCn1sccc1=O [OIT, 2-n-octylisothiazolin-3-one] as the molecule, how does the Qb/QB (Aspergillus niger; Aspergillus niger, 72 h) read?
The Qb/QB was 1.00.

And the “Synergy index Qa/QA + Qb/QB” value (Aspergillus niger; Aspergillus niger, 72 h)?
Its value is 1.00.

And the “MIC at OIT concentration Qb” value (Aspergillus niger; OIT share at the MIC, Aspergillus niger, 72 h)?
Its value is 5 ppm.

And the “Total concentration MIT/BIT + OIT” value (Aspergillus niger; at the MIC, Aspergillus niger, 72 h)?
Its value is 5 ppm.

And the MIC value (Aspergillus niger; used alone, 72 h at 25° C.)?
The MIC value was 5 ppm.

What about the “growth of the microorganism” value (Penicillium funiculosum; OIT 0.25 ppm, 72 h) of the same molecule?
Its value is “+”.

What about the “growth of the microorganism” value (Penicillium funiculosum; OIT 0.5 ppm, 72 h) of the same molecule?
Its value is “+”.

And the “growth of the microorganism” value (Penicillium funiculosum; OIT 1 ppm, 72 h)?
The value was “+”.

And the “growth of the microorganism” value (Penicillium funiculosum; OIT 2.5 ppm, 72 h)?
Its value is “+”.

And the “growth of the microorganism” value (Penicillium funiculosum; OIT 5 ppm, 72 h)?
Its value is “−”.

What about the “MIC at OIT concentration Qb” value (Penicillium funiculosum; OIT share at the MIC, Penicillium funiculosum, 72 h) of the same molecule?
Its value is 5 ppm.

And the Qb/QB (Penicillium funiculosum; Penicillium funiculosum, 72 h)?
Its Qb/QB is 1.00.

What about the “Synergy index Qa/QA + Qb/QB” value (Penicillium funiculosum; Penicillium funiculosum, 72 h) of the same molecule?
The value was 1.00.

What about the “Total concentration MIT/BIT + OIT” value (Penicillium funiculosum; at the MIC, Penicillium funiculosum, 72 h) of the same molecule?
Its value is 5 ppm.

And the MIC value (Penicillium funiculosum; used alone, 72 h at 25° C.)?
The MIC value was 5 ppm.

And the “MIC at OIT concentration Qb” value (Saccharomyces cerevisiae; OIT share at the MIC, Saccharomyces cerevisiae, 72 h)?
Its value is 5 ppm.

And the Qb/QB (Saccharomyces cerevisiae; Saccharomyces cerevisiae, 72 h)?
The Qb/QB was 1.00.

And the “Synergy index Qa/QA + Qb/QB” value (Saccharomyces cerevisiae; Saccharomyces cerevisiae, 72 h)?
The value was 1.00.

And the “Total concentration MIT/BIT + OIT” value (Saccharomyces cerevisiae; at the MIC, Saccharomyces cerevisiae, 72 h)?
Its value is 5 ppm.

What about the MIC value (Saccharomyces cerevisiae; used alone, 72 h at 25° C.) of the same molecule?
The MIC value was 5 ppm.

What about the “MIC at OIT concentration Qb” value (Pseudomonas aeruginosa [2]; OIT share at the MIC, Pseudomonas aeruginosa, 144 h) of the same molecule?
The value was 900 ppm.

What about the Qb/QB (Pseudomonas aeruginosa [2]; Pseudomonas aeruginosa, 144 h) of the same molecule?
The Qb/QB was 1.00.

And the “Synergy index Qa/QA + Qb/QB” value (Pseudomonas aeruginosa [2]; Pseudomonas aeruginosa, 144 h)?
The value was 1.00.

And the “Total concentration MIT/BIT + OIT” value (Pseudomonas aeruginosa [2]; at the MIC, Pseudomonas aeruginosa, 144 h)?
The value was 900 ppm.

What about the MIC value (Pseudomonas aeruginosa [2]; used alone, 144 h at 25° C.) of the same molecule?
Its MIC value is “over 800 ppm”.
